Measurements as given in ChEMBL document CHEMBL1201862, “PubChem BioAssay data set” (2004).
Calls of active or inactive are those of the source.

Experiments:
[1] = P. falciparum 3D7-ScDHODH growth inhibitors, dose response, SYBR Green, dry powder samples (AID 1159570); type: functional, cell-based;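 also: parasite growth measured after 72 hours of compound exposure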
[2] = HepG2 cell cytotoxicity, dose response, cytotoxicity control, plate reader, dry powder samples (AID 1159569); type: functional, cell-based;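 also: inhibitor potency with signal falling toward the positive control level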
[3] = P. falciparum Dd2 growth inhibitors, dose response, SYBR Green, cherry-picked samples (AID 1159567); type: functional, cell-based
[4] = P. falciparum Dd2 growth inhibitors, dose response, SYBR Green, dry powder samples (AID 1159566); type: functional, cell-based;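 also: potency for growth inhibition with lower SYBR green DNA signal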
[5] = P. falciparum ATP4 D1247Y mutant growth inhibitors, dose response, NITD609-resistant line, SYBR Green, dry powder (AID 1159571); type: functional, cell-based;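 also: parasites synchronized at ring stage by sorbitol before testing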
[6] = test system: H9c2; assay: cells; type: functional, cell-based; conditions: Rattus norvegicus, H9c2, Myocardium;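 also: confirmatory concentration-response retest of ultra-high-throughput screening hits for modulation of myocardial damage; cell death induced by hydrogen peroxide oxidative stress; compound pretreatment for 60 min then peroxide exposure for 2 h; potency is for protecting the cells against peroxide damage rather than for killing them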
[7] = test system: HEK293; assay: inhibitors of LMP1-driven NF-kB reporter, dose response, cell-based, HEK293, luciferase, cherry-pick (AID 588343); type: functional; conditions: Homo sapiens
[8] = target: Mitogen-activated protein kinase 10 (Homo sapiens, UniProt P53779); assay: Dose response biochemical screening assay for inhibitors of c-Jun N-Terminal Kinase 3 (JNK3). [Related pubchem assays: 746 ]
[9] = Luminescence Cell-Based Dose Retest to Confirm Inhibitors of Cancer Stem Cells. [Related pubchem assays (depositor defined):AID2717, AID2721]; type: functional; conditions: Homo sapiens
[10] = target: T1, Endoribonuclease toxin MazF (Escherichia coli K-12, UniProt P0AE70); assay: MazF toxin RNase activators, dose response, biochemical, fluorescence, single-stranded RNA substrate, uHTS hits (AID 588481); type: functional
T1 sequence (P0AE70 whole entry): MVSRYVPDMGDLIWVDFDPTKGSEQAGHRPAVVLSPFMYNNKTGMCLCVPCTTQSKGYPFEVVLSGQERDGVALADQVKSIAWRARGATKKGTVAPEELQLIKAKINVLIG

[11] = target: T1, Endoribonuclease toxin MazF; assay: fluorescent RNA oligo signal without MazF, dose response, counter-screen for MazEF activator project, biochemical, fluorescence, single-stranded RNase substrate (AID 588502); type: functional
[12] = target: Nuclear receptor subfamily 5 group A member 2 (Homo sapiens, UniProt O00482); type: functional, cell-based;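 also: HEK293T cells transfected with LRH-1 and a StAR promoter luciferase reporter; potency for inhibitors that lower LRH-1 driven reporter light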
[13] = target: Steroidogenic factor 1 (Homo sapiens, UniProt Q13285); assay: Counterscreen for inverse agonists of the liver receptor homolog-1 (LRH-1; NR5A2): Luminescence-based cell-based high throughput dose response assay to identify inverse agonists of the Steroidogenic Factor 1 Nuclear Receptor (SF1; NR5A1).; type: functional
[14] = StAR promoter reporter inhibition counter-screen, dose response, counter-screen for LRH-1 inverse agonist project, cell-based, luminescence, luciferase reporter (AID 651969); type: functional
[15] = target: Luciferin 4-monooxygenase (Photinus pyralis, UniProt P08659); assay: firefly luciferase enzyme inhibitors, dose response, biochemical, luminescence (AID 1891)
[16] = Luminescence Cell-Based Dose Confirmation HTS to Identify Inhibitors of Platelet Dense Granule Release. [Related pubchem assays: 1663 (Primary HTS), 1678 (Summary of Project)]; type: functional
[17] = target: T2, DNA repair protein RAD52 homolog (Homo sapiens, UniProt P43351); type: functional, biochemical
T2 sequence (P43351 whole entry): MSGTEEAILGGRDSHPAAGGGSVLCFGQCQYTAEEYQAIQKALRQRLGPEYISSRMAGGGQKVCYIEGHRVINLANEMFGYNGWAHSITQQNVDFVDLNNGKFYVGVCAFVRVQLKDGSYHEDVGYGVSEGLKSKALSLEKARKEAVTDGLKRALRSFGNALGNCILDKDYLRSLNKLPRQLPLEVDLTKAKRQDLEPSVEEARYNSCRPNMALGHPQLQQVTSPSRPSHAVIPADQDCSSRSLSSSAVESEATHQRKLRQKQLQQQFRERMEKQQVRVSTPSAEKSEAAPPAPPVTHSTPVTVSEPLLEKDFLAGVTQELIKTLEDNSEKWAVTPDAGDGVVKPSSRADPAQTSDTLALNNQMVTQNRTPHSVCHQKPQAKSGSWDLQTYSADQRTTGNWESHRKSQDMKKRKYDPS

[18] = intracellular Trypanosoma cruzi inhibitors in host cells – cell-based, plate reader, cherry-pick samples, set 3, dose response (AID 651818); type: functional;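 also: compounds incubated with infected cells for about four days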

Steroidogenic factor 1, sequence (Q13285 whole entry): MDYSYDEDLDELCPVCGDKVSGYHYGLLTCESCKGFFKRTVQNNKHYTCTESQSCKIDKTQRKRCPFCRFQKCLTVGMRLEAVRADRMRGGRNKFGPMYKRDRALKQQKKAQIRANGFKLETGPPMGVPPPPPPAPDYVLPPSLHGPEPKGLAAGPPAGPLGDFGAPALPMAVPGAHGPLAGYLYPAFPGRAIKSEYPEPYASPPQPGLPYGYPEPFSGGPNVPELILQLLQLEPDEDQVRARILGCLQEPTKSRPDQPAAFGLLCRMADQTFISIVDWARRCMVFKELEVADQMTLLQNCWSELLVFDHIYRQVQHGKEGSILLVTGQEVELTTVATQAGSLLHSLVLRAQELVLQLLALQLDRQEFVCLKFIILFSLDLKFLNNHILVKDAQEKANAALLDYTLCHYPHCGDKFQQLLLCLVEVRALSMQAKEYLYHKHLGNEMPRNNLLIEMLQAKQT
Nuclear receptor subfamily 5 group A member 2, sequence (O00482 whole entry): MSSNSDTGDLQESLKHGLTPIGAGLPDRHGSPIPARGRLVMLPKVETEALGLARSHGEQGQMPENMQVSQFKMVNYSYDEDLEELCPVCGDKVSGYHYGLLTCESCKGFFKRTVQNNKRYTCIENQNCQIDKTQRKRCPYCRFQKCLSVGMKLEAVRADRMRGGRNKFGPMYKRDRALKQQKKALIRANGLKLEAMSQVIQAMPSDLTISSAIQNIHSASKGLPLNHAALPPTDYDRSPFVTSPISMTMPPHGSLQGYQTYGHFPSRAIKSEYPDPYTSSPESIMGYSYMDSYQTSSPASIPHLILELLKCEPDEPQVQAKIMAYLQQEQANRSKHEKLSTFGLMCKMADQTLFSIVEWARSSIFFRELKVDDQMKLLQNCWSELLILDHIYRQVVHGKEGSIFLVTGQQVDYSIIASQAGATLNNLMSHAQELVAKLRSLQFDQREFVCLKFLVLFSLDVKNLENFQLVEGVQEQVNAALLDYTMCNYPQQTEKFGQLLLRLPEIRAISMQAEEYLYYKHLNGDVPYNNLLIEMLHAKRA
Mitogen-activated protein kinase 10, sequence (P53779 whole entry): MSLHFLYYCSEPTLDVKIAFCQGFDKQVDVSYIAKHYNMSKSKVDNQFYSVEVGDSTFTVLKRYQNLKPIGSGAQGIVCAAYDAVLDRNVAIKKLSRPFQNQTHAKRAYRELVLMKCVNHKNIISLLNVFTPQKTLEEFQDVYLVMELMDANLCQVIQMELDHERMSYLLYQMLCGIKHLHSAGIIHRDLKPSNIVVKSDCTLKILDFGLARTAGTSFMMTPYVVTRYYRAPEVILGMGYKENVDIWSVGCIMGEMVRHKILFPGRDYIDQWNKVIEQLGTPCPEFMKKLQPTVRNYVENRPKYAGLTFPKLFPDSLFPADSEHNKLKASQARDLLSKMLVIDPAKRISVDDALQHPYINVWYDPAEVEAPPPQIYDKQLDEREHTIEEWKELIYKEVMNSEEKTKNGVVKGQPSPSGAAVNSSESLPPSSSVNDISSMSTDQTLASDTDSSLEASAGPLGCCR
Luciferin 4-monooxygenase, sequence (P08659 whole entry): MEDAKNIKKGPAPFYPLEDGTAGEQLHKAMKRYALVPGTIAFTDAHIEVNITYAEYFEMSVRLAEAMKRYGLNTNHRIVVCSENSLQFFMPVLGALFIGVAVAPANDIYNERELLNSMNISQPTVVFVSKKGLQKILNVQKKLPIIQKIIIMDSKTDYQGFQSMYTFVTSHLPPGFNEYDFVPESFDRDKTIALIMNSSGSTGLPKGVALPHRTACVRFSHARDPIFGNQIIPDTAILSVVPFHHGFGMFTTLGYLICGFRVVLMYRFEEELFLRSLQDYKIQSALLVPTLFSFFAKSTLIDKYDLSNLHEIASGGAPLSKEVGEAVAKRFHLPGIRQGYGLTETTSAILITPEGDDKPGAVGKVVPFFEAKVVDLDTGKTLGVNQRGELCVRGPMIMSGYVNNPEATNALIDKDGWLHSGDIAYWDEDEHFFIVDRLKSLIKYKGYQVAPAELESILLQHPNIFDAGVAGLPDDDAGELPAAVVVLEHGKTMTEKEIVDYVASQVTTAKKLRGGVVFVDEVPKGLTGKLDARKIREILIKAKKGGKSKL

CO[C@H]1CN(C)C(=O)c2cc(NC(=O)C3CC3)ccc2OC[C@H](C)N(Cc2cc(F)ccc2F)C[C@H]1C
AC50 [1]: 4.89 µM (active) | AC50 [2]: 45.2 µM (active) | AC50 [3]: 2.14 µM (active) | AC50 [4]: 1.35 µM (active) | AC50 [5]: 1.99 µM (active)

CNS(=O)(=O)c1ccc2nc(NC(=O)/C=C/c3ccco3)sc2c1
IC50 [6]: > 79 µM (inactive)

CCOc1ccc(OCc2cccc(C(=O)N3CCCC3)c2)cc1
AC50 [7]: 4.43 µM (active)

CCC1S/C(=C(\C#N)C(N)=O)N(c2ccc(F)cc2)C1=O (stereo not given)
IC50 [8]: 32.6 µM (not active)

Cc1ccc(NC(=O)c2[nH]cnc2C(=O)NCCCNC(=O)c2nc[nH]c2C(=O)Nc2ccc(C)cc2)cc1
AC50 [9]: 3.39 µM (active) | IC50 [6]: > 79 µM (inactive)

COc1cc(C(=O)NCC(=O)N/N=C/c2ccc(-c3cccc([N+](=O)[O-])c3)o2)cc(OC)c1OC
IC50 [6]: 10.6 µM (active)

Cn1c(/C=C/c2ccccc2[N+](=O)[O-])nc2ccccc2c1=O
EC50 [10]: > 99 µM (inactive) | EC50 [11]: > 99 µM (inactive)

CC(=O)Nc1cc(Cl)c(/N=C/c2ccc(O)cc2O)cc1Cl
EC50 [10]: > 99 µM (inactive) | EC50 [11]: > 99 µM (inactive)

COc1ccccc1Nc1nc2ccc(C)cc2cc1C#N
EC50 [10]: > 99 µM (inactive) | EC50 [11]: 58.3 µM (inactive)

Nc1ccc(C(=O)NN2C(=O)[C@H](Cl)C2c2ccc(Cl)cc2)cc1 (stereo not given in full)
IC50 [12]: 11.9 µM (inactive) | IC50 [13]: 11.7 µM (inactive) | IC50 [14]: 28.8 µM (inactive)

CN(C)/C=c1\sc2c(C#N)cc(C(=O)c3ccc(Br)cc3)n2c1=O
EC50 [10]: > 99 µM (inactive) | EC50 [11]: 22.3 µM (inactive)

CCc1cc(=O)oc2c(C)c(OCC(=O)NC3CC(C)(C)NC(C)(C)C3)ccc12
EC50 [15]: > 112 µM (not active) | EC50 [16]: > 112 µM (not active) | IC50 [12]: 35.9 µM (inactive) | IC50 [13]: 1.82 µM (active) | IC50 [14]: 35.9 µM (inactive)

OC(CN1CCCCC1)Cn1c2ccccc2c2cc(Br)ccc21 (stereo not given)
AC50 [17]: 19 µM (active)

Cc1noc(C)c1S(=O)(=O)Nc1ccc2c(c1)CC(=O)N([C@H](C)CO)C[C@@H](C)[C@@H](CN(C)Cc1ccc(Cl)c(Cl)c1)O2
AC50 [18]: 6.96 µM (active)

C[C@H](CO)N1C[C@H](C)[C@H](CN(C)C(=O)Nc2ccccc2)Oc2ncc(C#Cc3ccc(C(F)(F)F)cc3)cc2C1=O
AC50 [18]: 1.37 µM (active)

OC[C@@H]1[C@@H](c2ccccc2)C2(CN(Cc3ccccc3F)C2)N1Cc1ccccc1F
AC50 [1]: 2.31 µM (active) | AC50 [2]: 35.8 µM (active) | AC50 [4]: 1.65 µM (active) | AC50 [5]: 1.94 µM (active)

C[C@@H]1CN([C@H](C)CO)C(=O)Cc2cc(NC(=O)Nc3ccc(C(F)(F)F)cc3)ccc2O[C@@H]1CN(C)Cc1ccc(C(F)(F)F)cc1
AC50 [18]: 1.19 µM (active)
